Paper PMC7195640, “New Synthetic 3-Benzoyl-5-Hydroxy-2H-Chromen-2-One (LM-031) Inhibits Polyglutamine Aggregation and Promotes Neurite Outgrowth through Enhancement of CREB, NRF2, and Reduction of AMPKα in SCA17 Cell Models” (Oxidative Medicine and Cellular Longevity, 2020)

Columns and labels:
[1] = MTT cytotoxicity assay in uninduced TBP/Q79-GFP 293 cells; type: cell-based; conditions: human
Method: (§1) Compound cytotoxicity was assessed by colorimetric assay measuring cell metabolic activity. Briefly, TBP/Q79-GFP 293 and SH-SY5Y cells were seeded on a 48-well plate (5 × 10^4/well), grown for 20 h, and treated with licochalcone A or LM compounds (0.1–100 μM). After one day, cell viability was measured based on reduction of 3,(4,5-dimethylthiazol-2-yl)-2,5-diphenyltetrazolium bromide (MTT), and the absorbance of the insoluble purple formazan product at OD 570 nm was read by a FLx800 fluorescence microplate reader (Bio-Tek, Winooski, VT, USA).

[2] = MTT cytotoxicity assay in uninduced TBP/Q79-GFP SH-SY5Y cells; type: cell-based; conditions: human
Method: as §1

[3] = system: TBP/Q79-GFP-expressing 293 cells; experiment: TBP/Q79 293 aggregation assay (high-content analysis of GFP fluorescence); type: cell-based, Human
Method: GFP fluorescence was evaluated to reflect TBP aggregation in TBP/Q79-GFP-expressing 293 cells. Briefly, cells were plated on 96-well (2 × 10^4/well) dishes, grown for 24 h and treated with different concentrations of licochalcone A or LM compounds (0.1 nM−100 μM) or a positive control suberoylanilide hydroxamic acid (SAHA, 100 nM) (Cayman Chemical, Ann Arbor, MI, USA). After 8 h, doxycycline (10 μg/mL) was added to the cells for 6 days to induce TBP/Q79-GFP expression. In addition, oxaliplatin (5 μM) (Sigma-Aldrich, St Louis, MO, USA) was included for TBP/Q79-GFP aggregate accumulation via blocking cell-cycle progression. On the eighth day, the cells were stained with Hoechst 33342 (0.1 μg/mL; Sigma-Aldrich) for 30 min, and cell images were automatically recorded (excitation/emission wavelengths of 482/536 nm for GFP and 377/447 nm for Hoechst 33342) by using an ImageXpress Micro Confocal High-Content Imaging System (Molecular Devices, Sunnyvale, CA, USA). Aggregation was determined by a Transfluor technology based on GFP fluorescence intensity. To quantify aggregation, the relative aggregation level in untreated cells was set as 100%. Aggregation was measured in wells containing ≥80% viable cells.

[4] = system: TBP/Q79-GFP-expressing SH-SY5Y cells; experiment: TBP/Q79-GFP SH-SY5Y aggregation assay (also with shRNA knockdown or AICAR); type: cell-based, Human; conditions: for polyQ aggregation / aggregation: SH-SY5Y cells; for reduction of aggregation: differentiated TBP/Q79-GFP SH-SY5Y cells, vs untreated
Method: (§2) On day 1, 2 × 10^4 of SH-SY5Y TBP/Q79-GFP cells were seeded on a 24-well plate with retinoic acid (10 μM; Sigma-Aldrich) added to induce neuronal differentiation. On day 2, the cells were treated with LM-031 or licochalcone A (100 nM) for 8 h and TBP/Q79-GFP expression was induced as described. On day 8, cells were stained with Hoechst 33342 (0.1 μg/mL) and the aggregation percentage and neurite outgrowth were assessed by high-content analysis as described. The morphologic differentiation of TBP/Q79-GFP-expressing cells was analyzed by using the Neurite Outgrowth Application Module (Molecular Devices).
(§3) To knockdown the expression of NRF2 and CREB in TBP/Q79-GFP SH-SY5Y cells, lentiviruses with short hairpin RNA (shRNA) targeting NRF2 (TRCN0000007558), CREB (TRCN0000226466), and a negative control scrambled (TRC2.Void) were obtained from the National RNAi Core Facility, Institute of Molecular Biology/Genomic Research Center, Academia Sinica, Taipei, Taiwan. On day 1, cells were plated on 6-well plates (8 × 10^5/well for protein analysis) or 24-well plates (2 × 10^4/well for neurite outgrowth analysis) in the presence of retinoic acid as described. On day 2, the cells were infected with lentivirus (multiplicity of infection: 3) in the presence of polybrene (8 μg/mL; Sigma-Aldrich) to increase infectivity. On day 3, the cells were pretreated with LM-031 or licochalcone A (100 nM) for 8 h; induction of TBP/Q79-GFP expression followed. On day 9, the cells were collected for NRF2 and CREB protein analysis or stained with Hoechst 33342 and analyzed for aggregation and neurite outgrowth as described.
(§4) AICAR (5-aminoimidazole-4-carboxamide 1-β-D-ribofuranoside) (Sigma-Aldrich), an analog of adenosine monophosphate (AMP), was used to stimulate AMP-dependent protein kinase (AMPK) activity. TBP/Q79-GFP SH-SY5Y cells were plated on 6-well or 24-well plates in the presence of retinoic acid as described. On day 2, the cells were pretreated with LM-031 or licochalcone A (100 nM) for 4 h; AICAR (0.1 mM) treatment and TBP/Q79-GFP induction followed. On day 8, the cells were collected for AMPKα and pAMPKα protein analysis or stained with Hoechst 33342 and analyzed for aggregation and neurite outgrowth as described.

AMPKα, pAMPKα (T172) = experiment: Western blot of AMPKα and pAMPKα in TBP/Q79-GFP SH-SY5Y cells; type: cell-based, Human; conditions: induced SH-SY5Y cells
Method: (§5) Total proteins from TBP/Q79-GFP SH-SY5Y cells were obtained using a lysis buffer containing 50 mM Tris-HCl (pH 8.0), 150 mM NaCl, 1 mM EDTA (pH 8.0), 1 mM EGTA (pH 8.0), 0.1% SDS, 0.5% sodium deoxycholate, 1% Triton X-100, and a protease inhibitor cocktail (Sigma-Aldrich). After quantitation using a protein assay kit (Bio-Rad, Hercules, CA, USA), proteins (20 μg) were separated on 10−12% SDS-polyacrylamide gel electrophoresis and blotted onto polyvinylidene difluoride (PVDF) membranes (Sigma-Aldrich) by reverse electrophoresis. After blocking, the membrane was probed with CREB (1 : 1000; Santa Cruz Biotechnology, Santa Cruz, CA, USA), pCREB (S133) (1 : 1000; Santa Cruz Biotechnology), BCL2 (1 : 500; BioVision, Milpitas, CA, USA), GADD45B (1 : 1000; Abcam, Cambridge, MA, USA), BAX (1 : 500; BioVision), NRF2 (1 : 500; Santa Cruz Biotechnology), AMPKα (1 : 1000; Cell Signaling, Danvers, MA, USA), pAMPKα (T172) (1 : 1000; Cell Signaling), GAPDH (1 : 1000) (MDBio Inc., Taipei, Taiwan), or β-actin (1 : 5000; Millipore, Billerica, MA, USA) primary antibody at 4°C overnight. The immune complexes were detected using a horseradish peroxidase-conjugated goat anti-mouse or goat anti-rabbit IgG antibody (1 : 10000; GeneTex, Irvive, CA, USA) and a chemiluminescent substrate (Millipore).
as §4

CREB, pCREB (S133) = experiment: Western blot of CREB and pCREB in TBP/Q79-GFP SH-SY5Y cells; type: cell-based, Human; conditions: 100 nM; for pCREB/CREB (phosphor/total ratio), uninduced = 100%: induced SH-SY5Y cells, untreated induced 85%; for pCREB level, scrambled shRNA uninduced = 100%: scrambled shRNA-infected induced SH-SY5Y cells, untreated 81%
Method: as §5, §3

GADD45B = experiment: Western blot of GADD45B in TBP/Q79-GFP SH-SY5Y cells; type: cell-based, Human; conditions: 100 nM, induced SH-SY5Y cells; untreated induced 66–70%
Method: as §5

NRF2 = experiment: Western blot of NRF2 in TBP/Q79-GFP SH-SY5Y cells; type: cell-based, Human; conditions: 100 nM; for NRF2 protein level, uninduced = 100%: induced SH-SY5Y cells, untreated induced 72%; for NRF2 level, scrambled shRNA uninduced = 100%: scrambled shRNA-infected induced SH-SY5Y cells, untreated 54%
Method: as §5, §3

[5] = system: TBP/Q79-GFP-expressing SH-SY5Y cells; experiment: TBP/Q79-GFP SH-SY5Y neurite outgrowth assay (also with shRNA knockdown or AICAR); type: cell-based, Human; conditions: for increased neurite outgrowth: vs untreated
Method: as §2, §3, §4

BAX = experiment: Western blot of BAX in TBP/Q79-GFP SH-SY5Y cells; type: cell-based, Human; conditions: 100 nM, induced SH-SY5Y cells; untreated induced 156%
Method: as §5

[6] = 100 nM compound + AICAR 0.1 mM, AICAR alone 5.2%
[7] = 100 nM, no AICAR, no treatment 4.6%
[8] = 100 nM compound + AICAR 0.1 mM, SH-SY5Y cells, AICAR alone 17.2 μm
[9] = 100 nM, NRF2 shRNA, SH-SY5Y cells
[10] = 100 nM, differentiated TBP/Q79-GFP SH-SY5Y cells
[11] = 100 nM, differentiated TBP/Q79-GFP SH-SY5Y cells, untreated 21.1 μm
[12] = 100 nM, no AICAR, SH-SY5Y cells, no treatment 19.6 μm
[13] = 100 nM, scrambled shRNA, SH-SY5Y cells, no treatment 21.6 μm

Work on `COc1ccc(O)c(/C=C/C(=O)c2ccccc2)c1` [LM-006] yielded an IC50 at 24 h [1] of 47 µM and an IC50 at 24 h [2] of 56 µM.

In the case of `COc1cccc(/C=C/C(=O)c2ccc(O)cc2)c1O` [LM-026], the IC50 at 24 h [1] is reported as 53 µM and the IC50 at 24 h [2] is reported as 58 µM.

In the case of `O=C(CCCCCCC(=O)Nc1ccccc1)NO` [SAHA, suberoylanilide hydroxamic acid, reference compound], the “TBP/Q79-GFP aggregation (untreated cells = 100%)” value ([3]; 100 nM, Dox + oxaliplatin 6 days) is reported as 82%.

For `COc1ccc(C(=O)/C=C/c2cc(Br)ccc2O)cc1` [LM-004], the IC50 at 24 h [1] was 45 µM and the IC50 at 24 h [2] was 54 µM.

In the case of `Cc1ccc(/C=C/C(=O)c2c(O)c3ccccc3oc2=O)cc1` [LM-016], the IC50 at 24 h [1] is reported as over 100 µM and the IC50 at 24 h [2] is reported as over 100 µM.

With `O=C(c1ccccc1)c1cc2c(O)cccc2oc1=O` [LM-031, 3-benzoyl-5-hydroxy-2H-chromen-2-one] the “TBP/Q79-GFP aggregation (untreated cells = 100%)” value ([3]; 10 nM–10 μM, significantly better than SAHA 100 nM (82%)) was 74–76%, the IC50 at 24 h [1] was over 100 µM and the polyQ aggregation [4, 6] was 4.0%. The aggregation ([4]; 100 nM, NRF2 shRNA) was 5.5%, the reduction of aggregation ([4]; 100 nM) was 18–20% and the polyQ aggregation [4, 7] was 3.6–3.7%. The “pAMPKα level, uninduced = 100%” value (AMPKα, pAMPKα (T172); 100 nM compound + AICAR 0.1 mM, AICAR alone 160%) was 96%, the “phosphor/total ratio of AMPKα, uninduced = 100%” value (AMPKα, pAMPKα (T172); 100 nM, untreated induced 170%) was 130% and the “pAMPKα level (phosphor/total ratio of AMPKα), uninduced = 100%” value (AMPKα, pAMPKα (T172); 100 nM, no AICAR, untreated induced 134%) was 110%. For the same molecule, the “pCREB/CREB (phosphor/total ratio), uninduced = 100%” value (CREB, pCREB (S133)) was 110%, the “pCREB level, scrambled shRNA uninduced = 100%” value (CREB, pCREB (S133)) was 107–112% and the “GADD45B protein level, uninduced = 100%” value (GADD45B) was 104–105%. The “NRF2 protein level, uninduced = 100%” value (NRF2) was 96–100%, the “NRF2 level, scrambled shRNA uninduced = 100%” value (NRF2) was 84–93% and the neurite outgrowth [5, 8] was 21.6 μm. For the same molecule, the neurite outgrowth [5, 9] was 17.8–18.1 μm, the increased neurite outgrowth [5, 10] was 19−22% and the neurite outgrowth [5, 11] was 25.1–25.6 μm. The neurite outgrowth [5, 12] was 23.0–23.6 μm, the neurite outgrowth [5, 13] was 23.8–24.6 μm and the IC50 at 24 h [2] was over 100 µM. The “BAX protein level, uninduced = 100%” value (BAX) was 103%.

Molecule `C=CC(C)(C)c1cc(/C=C/C(=O)c2ccc(O)cc2)c(OC)cc1O` [licochalcone A, reference compound] has an IC50 at 24 h ([1]; uninduced TBP/Q79-GFP 293 cells, MTT, compounds 0.1−100 μM for 24 h, read-out: IC50 cytotoxicity) of 53 µM, a polyQ aggregation [4, 6] of 4.9% and an aggregation ([4]; 100 nM, NRF2 shRNA) of 5.5%. The reduction of aggregation ([4]; 100 nM) was 18–20%, the polyQ aggregation [4, 7] was 3.6–3.7% and the “pCREB/CREB (phosphor/total ratio), uninduced = 100%” value (CREB, pCREB (S133)) was 110%. The “pCREB level, scrambled shRNA uninduced = 100%” value (CREB, pCREB (S133)) was 107–112%, the “GADD45B protein level, uninduced = 100%” value (GADD45B) was 104–105% and the “NRF2 protein level, uninduced = 100%” value (NRF2) was 96–100%. The “NRF2 level, scrambled shRNA uninduced = 100%” value (NRF2) was 84–93%, the neurite outgrowth [5, 8] was 18.4 μm and the neurite outgrowth [5, 9] was 17.8–18.1 μm. The increased neurite outgrowth [5, 10] was 19−22%, the neurite outgrowth [5, 11] was 25.1–25.6 μm and the neurite outgrowth [5, 12] was 23.0–23.6 μm. The neurite outgrowth [5, 13] was 23.8–24.6 μm, the IC50 at 24 h ([2]; uninduced TBP/Q79-GFP SH-SY5Y cells, MTT, compounds 0.1−100 μM for 24 h, read-out: IC50 cytotoxicity) was 57 µM and the “BAX protein level, uninduced = 100%” value (BAX) was 103%.

In the case of `NC(=O)c1ncn([C@@H]2O[C@H](CO)[C@@H](O)[C@H]2O)c1N` [AICAR, 5-aminoimidazole-4-carboxamide 1-β-D-ribofuranoside], the aggregation ([4]; AICAR 0.1 mM alone, no treatment 4.6%) is reported as 5.2%, the “pAMPKα level, uninduced = 100%” value (AMPKα, pAMPKα (T172); AICAR 0.1 mM alone, without AICAR 134%) is reported as 160% and the neurite outgrowth ([5]; AICAR 0.1 mM alone, SH-SY5Y cells, no treatment 19.6 μm) is reported as 17.2 μm.
